Consider 5 compounds from ChEMBL document CHEMBL1201862, “PubChem BioAssay data set” (2004).

Test systems include SNB-19; A498; MDA-N; SK-OV-3; HCT-15; Hs-578T; CAKI-1; A549; U-251; NCI-H226; BT-549; HCC 2998; NCI-H460; NCI-H522; DU-145; T47D; NCI/ADR-RES; OVCAR-8; COLO 205; UACC-62.
Holding throughout (assay): NCI-60 cell line screen, 48 h

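Where inhibition never reached the appropriate level, the endpoint shown equals the highest concentration tested. Otherwise, values were interpolated linearly from a five-concentration, 48-hour dose response in 96-well plates. GI50: concentration for 50% inhibition of growth.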 The source made the active and inactive calls. Rule as the data show it: active = GI50 up to about 1.1 µM and inactive = higher.

With `c1ccc([P+](Cc2ccc(C[P+](c3ccccc3)(c3ccccc3)c3ccccc3)s2)(c2ccccc2)c2ccccc2)cc1`, the GI50 in the test with SNB-19 is > 100 µM (inactive); with A498, > 100 µM (inactive); in the test on MDA-N, > 100 µM (inactive); in the test with SK-OV-3, > 100 µM (inactive); with HCT-15, greater than 100 µM; in the test with Hs-578T, > 100 µM (inactive). Further, the GI50 in the test on CAKI-1, in the test on A549, in the test on U-251, with NCI-H226, in the test with BT-549 and in the test on HCC 2998 was > 100 µM (inactive) in each case. In addition, the GI50 with NCI-H460, in the test with NCI-H522, in the test on DU-145, with T47D, with NCI/ADR-RES and in the test with OVCAR-8 was > 100 µM (inactive) each time. Also, the GI50 in the test on COLO 205 and in the test on UACC-62 was > 100 µM (inactive) throughout.

In the case of `CCOC(=O)c1c(O)nc(O)c(CC)c1C`, the GI50 with SNB-19 was > 100 µM (inactive); in the test with A498 it was > 100 µM (inactive); in the test with MDA-N, > 100 µM (inactive); in the test on SK-OV-3 it was > 100 µM (inactive); in the test with HCT-15, greater than 100 µM; with Hs-578T it was > 100 µM (inactive). The GI50 in the test on CAKI-1, in the test on A549, in the test on U-251, with NCI-H226, in the test with BT-549 and in the test with HCC 2998 was > 100 µM (inactive) throughout. The GI50 with NCI-H460, in the test with NCI-H522, in the test on DU-145, with T47D, in the test on NCI/ADR-RES and in the test on OVCAR-8 was > 100 µM (inactive) throughout. The GI50 in the test with COLO 205 and with UACC-62 was > 100 µM (inactive) in each case.

With `CC(=O)N1c2ccccc2Sc2cc(C(O)(C(F)(F)F)C(F)(F)F)ccc21`, the GI50 is > 10 µM (inactive) in the test with SNB-19; > 10 µM (inactive) in the test on A498; > 10 µM (inactive) with MDA-N; > 10 µM (inactive) in the test on SK-OV-3; greater than 10 µM in the test with HCT-15; > 10 µM (inactive) in the test on Hs-578T. Also, the GI50 with CAKI-1, with A549, with U-251, in the test with NCI-H226, with BT-549 and in the test on HCC 2998 was > 10 µM (inactive) in each case. For the same compound, the GI50 with NCI-H460 is > 10 µM (inactive); with NCI-H522, > 10 µM (inactive); in the test with DU-145, > 10 µM (inactive); with T47D, 9.86 µM (inactive); in the test with NCI/ADR-RES it was > 10 µM (inactive); with OVCAR-8, > 10 µM (inactive). The GI50 in the test with COLO 205 and in the test with UACC-62 was > 10 µM (inactive) each time.

`COc1ccccc1CCN1CCN(CCCc2ccccc2)CC1`: the GI50 was > 100 µM (inactive) with SNB-19; 70.8 µM (inactive) in the test with A498; 58.9 µM (inactive) in the test on MDA-N; > 100 µM (inactive) in the test on SK-OV-3; 42.6 µM in the test with HCT-15; > 100 µM (inactive) in the test on Hs-578T. Also, the GI50 in the test on CAKI-1 is 91 µM (inactive); in the test on A549 it was 85.7 µM (inactive); in the test with U-251 it was > 100 µM (inactive); in the test on NCI-H226, 72.9 µM (inactive); with BT-549 it was > 100 µM (inactive); in the test on HCC 2998, 47.3 µM (inactive). For the same compound, the GI50 with NCI-H460 is 54.3 µM (inactive); in the test with NCI-H522, 32.4 µM (inactive); with DU-145 it was > 100 µM (inactive); with T47D, 55.3 µM (inactive); in the test with NCI/ADR-RES, > 100 µM (inactive); with OVCAR-8, > 100 µM (inactive). Moreover, the values for the GI50 with COLO 205 and in the test with UACC-62 were 28.5 µM (inactive) and > 100 µM (inactive), respectively.

Regarding `Nc1c(C(=O)O)nnc2ccc(Cl)cc12`, the GI50 in the test with SNB-19 was > 100 µM (inactive); with A498, 58.6 µM (inactive); in the test with MDA-N it was > 100 µM (inactive); with SK-OV-3, > 100 µM (inactive); in the test on HCT-15 it was greater than 100 µM; in the test with Hs-578T it was > 100 µM (inactive). The GI50 with CAKI-1 is > 100 µM (inactive); in the test on A549, > 100 µM (inactive); with U-251, > 100 µM (inactive); in the test on NCI-H226, 41.8 µM (inactive); in the test with BT-549 it was > 100 µM (inactive); in the test with HCC 2998 it was > 100 µM (inactive). In addition, the GI50 in the test with NCI-H460, with NCI-H522, in the test on DU-145, with T47D, with NCI/ADR-RES and with OVCAR-8 was > 100 µM (inactive) throughout. Moreover, the GI50 in the test with COLO 205 and with UACC-62 was > 100 µM (inactive) in each case.
